The record followed here is US5500217A, “Personal care formulations” (priority 1991, dated 1996).

Assay [1] relates to Pseudomonas aeruginosa. Nature of the assay: Challenge test in shampoo, number of surviving (viable) bacteria. It is filed as cell-based, Pseudomonas aeruginosa (ATCC 19429). The method, then:
(§1) Further aspects of the present invention are described in the following illustrative examples. Unless otherwise stated all refer to parts by weight. Also, personal care formulations in accordance with the present invention were subjected to evaluation of the antimicrobial properties of the composition. The anti-microbial evaluation was effected, under aseptic conditions throughout, in the following manner.
(§2) In the anti-microbial evaluation, the formulations were tested for anti-microbial activity against bacteria and/or fungi. The bacteria used were either Pseudomonas aeruginosa or Staphylococcusaureus. The fungus used was Candida albicans.
Aliquots (4 parts) of the above shampoo were then prepared with concentrations of the biocides indicated in Table 3 at 500 and 125 ppm of active ingredient.
The above samples were then challenged with a 0.2 parts by volume inoculum of a 24 hour culture of Pseudomonas aeruginosa (ATCC 19429) containing approximately 1×10^8 colony forming units (cfu's) per milliliter. The samples were then incubated in the dark at 25° C., 1 milliliter samples taken after 24 hours, 48 hours and 7 days and the number of surviving bacteria determined.
The procedure of Examples 4-14 were repeated using the 1:1 silver complex of N-methyl-N-hydroxythiobenzamide at four different concentrations.

The test system of assay [2] is Staphylococcus aureus. Put plainly: Anti-microbial challenge test in oil in water emulsion (base cream), Staphylococcus aureus. It is filed as cell-based, Staphylococcus aureus (ATCC 6538). The following applies: viable count < 10^2 cells cm^-3; for MLC, SA, 7d: 7 days. On the procedure: as §1, §2
(§3) To aliquots (20 parts) of the emulsion were added various anti-microbial agents at concentrations of 500, 125, 31.25 and 7.8 ppm of active ingredients.
(§4) One sample of each mixture was inoculated with 0.2 parts by volume of a 24 hour culture of Staphylococcus aureus (ATCC 6538) containing 10^8 cells cm^-3. Duplicate samples of each mixture were inoculated with 0.2 parts by volume of a 48 hour culture of Candida albicans (ATCC 10231) containing 10^8 cells cm^-3.
(§5) The samples were then incubated and samples removed after 24 hours, 48 hours and 7 days as described in Examples 1 and 2 with the exception that the samples were not subjected to a further challenge after seven days.

Assay [3] has as its system Candida albicans. Put plainly: Anti-microbial challenge test in oil in water emulsion (base cream), Candida albicans. The format is cell-based, Candida albicans (ATCC 10231). The following applies: viable count < 10^2 cells cm^-3; for MLC, CA, 7d: 7 days. On the procedure:
as §1, §2, §3, §4, §5

The subject of assay [4] is Pseudomonas aeruginosa. Put plainly: Anti-microbial challenge test in protein-containing shampoo (MLC, two challenges). It is filed as cell-based, Pseudomonas aeruginosa (ATCC 19429). The conditions noted are these: viable count < 10^2 cells cm^-3; for MLC, Challenge 1, 48h / MLC, Challenge 1, 7d: first challenge; for MLC, Challenge 1, 7d / MLC, Challenge 2, 7d: 7 days. The method, then:
as §1, §2
To aliquots (20 parts) of the shampoo formulation prepared as described were added various anti-microbial agents at concentrations of 125, 62.5, 31.25, 7.8 and 1.56 ppm of active ingredient, not all of the anti-microbial agents being used at all of these levels. The anti-microbial agents, and the levels used are as set out in Table One.
One sample of a mixture of the shampoo formulation and the anti-microbial agent was stored for one month (4 weeks) at 40° C. and a duplicate sample of the mixture was stored for one month at ambient temperature (about 20° C.).
The variants thus obtained were then challenged with a 0.2 parts by volume inoculum of a 24 hour culture of Pseudomonas aeruginosa (ATCC 19429) containing approximately 1×10^8 colony forming units (cfu's) per cm^3. The variants were than incubated in the dark at 25° C., and samples (one cm^3) were taken after 24 hours, 48 hours and 7 days. The number of surviving bacteria was determined by the decimal dilution method and the viable cells enumerated by incubation of the survivor detection plates at 30° C. for three days.
The results are shown in Table One in which the concentration of anti-microbial agent is the minimum required to reduce the count of viable cells to less than 10^2 cells cm^-3.
After removing the seven day sample, the samples of the shampoo formulation were challenged with a further 0.2 parts of a similar Pseudomonas aeruginosa culture and incubation at 25° C. was continued. Further one cm^3 samples were removed after 24 hours, 48 hours and 7 days and the number of surviving bacteria was determined in the same manner.

Where [5] appears, read: (S): shampoo stored one month at 40° C.
[6] abbreviates: (S): shampoo stored one month at 40° C., second challenge.
Where [7] appears, read: shampoo stored one month at ambient temperature.
The mark [8] stands for this setting: shampoo stored one month at ambient temperature, second challenge.

Structures can show the parent of a compound that is named as a salt.

Consider `Cc1csc(=S)n1O` [Example 4, 3hydroxy-4-methylthiazol-2(3H)-thione], for which, in assay [1] (Table 3, 125 ppm), the “Viable bacteria after 24 hr” value was 1.7 E4, the “Viable bacteria after 48 hr” value is > 3.0 E4 and the “Viable bacteria after 7 days” value is reported as > 3.0 E4. In addition, in assay [1] (Table 3, 500 ppm), the “Viable bacteria after 24 hr” value was 1.2 E4, the “Viable bacteria after 48 hr” value is recorded as > 3.0 E4 and the “Viable bacteria after 7 days” value is on record as > 3.0 E4.

On to `Cc1csc(=S)n1[O-].Cc1csc(=S)n1[O-].Cc1csc(=S)n1[O-].[Y+3]` [Example 6], for which, in assay [1] (Table 3, 125 ppm), the “Viable bacteria after 24 hr” value is recorded as 4.5 E4, the “Viable bacteria after 48 hr” value is > 1.0 E4 and the “Viable bacteria after 7 days” value was < 3.0 E4. In assay [1] (Table 3, 500 ppm), the “Viable bacteria after 24 hr” value is recorded as 1.4 E4, the “Viable bacteria after 48 hr” value is listed as > 3.0 E4 and the “Viable bacteria after 7 days” value is recorded as < 3.0 E4.

In the case of `Cc1csc(=S)n1[O-].Cc1csc(=S)n1[O-].[Mn+2]` [Example 7], in assay [1] (Table 3, 125 ppm), the “Viable bacteria after 24 hr” value is recorded as 2.4 E4, the “Viable bacteria after 48 hr” value is reported as > 3.0 E4 and the “Viable bacteria after 7 days” value was > 3.0 E4. Also, in assay [1] (Table 3, 500 ppm), the “Viable bacteria after 24 hr” value was 3.5 E4, the “Viable bacteria after 48 hr” value is on record as > 3.0 E4 and the “Viable bacteria after 7 days” value was > 3.0 E4.

As for `Cc1csc(=S)n1[O-].Cc1csc(=S)n1[O-].Cc1csc(=S)n1[O-].[Co+3]` [Example 8], in assay [1] (Table 3, 125 ppm), the “Viable bacteria after 24 hr” value is listed as 2.1 E3, the “Viable bacteria after 48 hr” value is less than 10 and the “Viable bacteria after 7 days” value is reported as less than 10. In addition, in assay [1] (Table 3, 500 ppm), the “Viable bacteria after 24 hr” value is 1.2 E3, the “Viable bacteria after 48 hr” value is on record as less than 10 and the “Viable bacteria after 7 days” value is less than 10.

For the compound `Cc1csc(=S)n1[O-].Cc1csc(=S)n1[O-].Cc1csc(=S)n1[O-].[Sc+3]` [Example 9], in assay [1] (Table 3, 125 ppm), the “Viable bacteria after 24 hr” value is given as 2.6 E3, the “Viable bacteria after 48 hr” value came out at 8.0 and the “Viable bacteria after 7 days” value is reported as less than 10. Besides, in assay [1] (Table 3, 500 ppm), the “Viable bacteria after 24 hr” value is reported as 2.0 E3, the “Viable bacteria after 48 hr” value is listed as 1.7 E2 and the “Viable bacteria after 7 days” value is less than 10.

Regarding `Cc1csc(=S)n1[O-].Cc1csc(=S)n1[O-].Cc1csc(=S)n1[O-].[In+3]` [Example 11], in assay [1] (Table 3, 125 ppm), the “Viable bacteria after 24 hr” value is recorded as 9.1 E2, the “Viable bacteria after 48 hr” value is on record as less than 10 and the “Viable bacteria after 7 days” value is given as less than 10. In addition, in assay [1] (Table 3, 500 ppm), the “Viable bacteria after 24 hr” value is less than 10, the “Viable bacteria after 48 hr” value is less than 10 and the “Viable bacteria after 7 days” value was less than 10.

Turning to `Cc1csc(=S)n1[O-].Cc1csc(=S)n1[O-].[O]=[V+2]` [Example 12], in assay [1] (Table 3, 125 ppm), the “Viable bacteria after 24 hr” value is 1.5 E4, the “Viable bacteria after 48 hr” value is > 3.0 E4 and the “Viable bacteria after 7 days” value is recorded as 8.3 E5. In addition, in assay [1] (Table 3, 500 ppm), the “Viable bacteria after 24 hr” value is given as 1.3 E3, the “Viable bacteria after 48 hr” value was less than 10 and the “Viable bacteria after 7 days” value is given as less than 10.

For the compound `Cc1csc(=S)n1[O-].Cc1csc(=S)n1[O-].[Co+2]` [Example 13], in assay [1] (Table 3, 125 ppm), the “Viable bacteria after 24 hr” value was 2.1 E3, the “Viable bacteria after 48 hr” value is on record as less than 10 and the “Viable bacteria after 7 days” value is reported as less than 10. Moreover, in assay [1] (Table 3, 500 ppm), the “Viable bacteria after 24 hr” value was 5.2 E2, the “Viable bacteria after 48 hr” value is less than 10 and the “Viable bacteria after 7 days” value is recorded as less than 10.

In the case of `Cc1csc(=S)n1[O-].Cc1csc(=S)n1[O-].[Zn+2]` [Example 14], in assay [1] (Table 3, 125 ppm), the “Viable bacteria after 24 hr” value is listed as 3.3 E3, the “Viable bacteria after 48 hr” value is reported as less than 10 and the “Viable bacteria after 7 days” value is recorded as less than 10. Besides, in assay [1] (Table 3, 500 ppm), the “Viable bacteria after 24 hr” value is reported as 4.4 E3, the “Viable bacteria after 48 hr” value was less than 10 and the “Viable bacteria after 7 days” value was less than 10.

With `CN(O)C(=S)c1ccccc1.[Ag]` [Example 15, 1:1 silver complex of N-methyl-N-hydroxythiobenzamide], the “Viable bacteria after 24 hrs” value was less than 10 in assay [1] (Table 4, 7.13 ppm); less than 10 in assay [1] (Table 4, 31.25 ppm); less than 10 in assay [1] (Table 4, 125 ppm); less than 10 in assay [1] (Table 4, 500 ppm). For the same compound, the “Viable bacteria after 48 hrs” value is on record as less than 10 in assay [1] (Table 4, 7.13 ppm); less than 10 in assay [1] (Table 4, 31.25 ppm); less than 10 in assay [1] (Table 4, 125 ppm); less than 10 in assay [1] (Table 4, 500 ppm). In addition, the “Viable bacteria after 7 days” value is less than 10 in assay [1] (Table 4, 7.13 ppm); less than 10 in assay [1] (Table 4, 31.25 ppm); less than 10 in assay [1] (Table 4, 125 ppm); less than 10 in assay [1] (Table 4, 500 ppm).

Take `On1ccccc1=S` [SP, sodium salt of 1hydroxy-2-pyridinethione]: in assay [2], the “MLC, SA, 24h” value is reported as more than 500 ppm w/v; the “MLC, SA, 48h” value stood at 500 ppm w/v; the “MLC, SA, 7d” value was found to be 125 ppm w/v. In assay [3], the “MLC, CA, 24h” value was determined as 500 ppm w/v; the “MLC, CA, 48h” value came out at 500 ppm w/v; the “MLC, CA, 7d” value came out at 31.25 ppm w/v.

As to `[O-]n1ccccc1=S.[O-]n1ccccc1=S.[Zn+2]` [ZP, 1:2 complex of zinc with 1hydroxy-2-pyridinethione], in assay [2], the “MLC, SA, 24h” value is more than 500 ppm w/v; the “MLC, SA, 48h” value was more than 500 ppm w/v; the “MLC, SA, 7d” value is 500 ppm w/v. For the same compound, in assay [3], the “MLC, CA, 24h” value amounted to 500 ppm w/v; the “MLC, CA, 48h” value is 500 ppm w/v; the “MLC, CA, 7d” value amounted to 31.25 ppm w/v.

As to `Cc1csc(=S)n1O.Cc1csc(=S)n1O.[Zn]` [ZTA, 2:1 complex of 3hydroxy-4-methyl-thiazol-2(3H) thione and zinc], in assay [4] (setting [5]), the “MLC, Challenge 1, 48h” value is reported as 62.5 ppm w/v and the “MLC, Challenge 1, 7d” value is listed as 62.5 ppm w/v. In assay [4] (setting [6]), the “MLC, Challenge 2, 48h” value was 62.5 ppm w/v and the “MLC, Challenge 2, 7d” value stood at 62.5 ppm w/v. In addition, in assay [4] (setting [7]), the “MLC, Challenge 1, 48h” value worked out at 7.8 ppm w/v and the “MLC, Challenge 1, 7d” value turned out to be 7.8 ppm w/v. Moreover, in assay [4] (shampoo stored one month at ambient temperature, second challenge, 24 h), the “MLC, Challenge 2, 24h” value is listed as 31.25 ppm w/v. For the same compound, in assay [4] (setting [8]), the “MLC, Challenge 2, 48h” value was found to be 31.25 ppm w/v and the “MLC, Challenge 2, 7d” value came to 31.25 ppm w/v. Also, in assay [1] (Table 3, 125 ppm), the “Viable bacteria after 24 hr” value was 6.2 E3, the “Viable bacteria after 48 hr” value was less than 10 and the “Viable bacteria after 7 days” value is less than 10. In addition, in assay [1] (Table 3, 500 ppm), the “Viable bacteria after 24 hr” value is reported as 7.6 E3, the “Viable bacteria after 48 hr” value is less than 10 and the “Viable bacteria after 7 days” value was less than 10. Further, in assay [2], the “MLC, SA, 24h” value worked out at 500 ppm w/v; the “MLC, SA, 48h” value is recorded as 31.25 ppm w/v; the “MLC, SA, 7d” value worked out at 7.8 ppm w/v. In addition, in assay [3], the “MLC, CA, 24h” value is reported as 31.25 ppm w/v; the “MLC, CA, 48h” value turned out to be 31.25 ppm w/v; the “MLC, CA, 7d” value was found to be 31.25 ppm w/v.
